Results on 22 compounds are retold here after PMC9822066 (Molecules, 2022).

For assay [1], the target named is T1, hMAO B (Homo sapiens, UniProt P27338).
T1 sequence (P27338 1-520): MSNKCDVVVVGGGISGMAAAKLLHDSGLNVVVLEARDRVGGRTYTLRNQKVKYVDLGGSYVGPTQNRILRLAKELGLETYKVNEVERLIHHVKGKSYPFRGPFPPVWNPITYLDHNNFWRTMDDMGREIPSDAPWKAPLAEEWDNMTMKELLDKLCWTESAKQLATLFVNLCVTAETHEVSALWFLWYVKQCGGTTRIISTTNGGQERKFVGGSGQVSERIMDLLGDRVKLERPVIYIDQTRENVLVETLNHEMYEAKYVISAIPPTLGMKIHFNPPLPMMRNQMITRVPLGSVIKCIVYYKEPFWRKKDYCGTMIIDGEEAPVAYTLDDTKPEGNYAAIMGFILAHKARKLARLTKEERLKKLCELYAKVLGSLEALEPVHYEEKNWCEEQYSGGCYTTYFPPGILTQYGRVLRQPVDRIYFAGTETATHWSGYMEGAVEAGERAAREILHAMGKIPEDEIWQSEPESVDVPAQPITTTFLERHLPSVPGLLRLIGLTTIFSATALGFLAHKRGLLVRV
Put plainly: Fluorometric MAO assay, hMAO B inhibition. Particulars: mean ± SEM of two independent experiments, read-out: hMAO B %Inh. at 1 µM. The format is biochemical.

In assay [2] the target is T2, human H3R (Homo sapiens, UniProt Q9Y5N1).
T2 construct: expressed in transfected cells; host or cells: HEK293
Put plainly: [3H]Nα-methylhistamine radioligand binding assay in HEK293 cells stably expressing hH3R. How it is done:
Final compounds were tested for their H3R affinity in a radioligand binding assay using [^3H]N^α-methylhistamine as radioligand in HEK293 cells stably expressing hH3R [25]. […] Affinity to hH3R stably expressed in HEK293 cells was evaluated in a radioligand binding assay as described previously. […] The radioactivity was counted in a MicroBeta Trilux counter (PerkinElmer). Data were fitted to a one-site curve-fitting equation with Prism 6 (GraphPad Software, San Diego, CA, USA) and Ki values were calculated from IC50 values (from at least three experiments performed in duplicates) according to the Cheng−Prusoff equation [52].

Assay [3] has as its target BuChE from equine serum (eqBuChE) (Equus caballus, UniProt P81908). Put plainly: biochemical. The format is biochemical. Particulars: for IC50: mean ± SEM, triplicate independent experiments.
Assay [4] addresses T3, electric eel AChE (eeAChE) (Electrophorus electricus, UniProt O42275).
T3 construct: purchased Sigma–Aldrich (Steinheim, Germany)
Put plainly: biochemical. To be noted: for inhibition at 10 µM: read-out: eeAChE % Inh. at 10 µM; for IC50: mean ± SEM, triplicate independent experiments, read-out: eeAChE IC50.

Setting [5] is: mean value within the 95% CI, three repetitions, read-out: hH3R Ki.

The structures appear in SMILES notation. Where a name gives a salt, the structure may show the parent alone. Read-outs that look alike come from different tables or passages of the source.

For orientation: Ki means a dissociation constant, usually derived from enzyme kinetics or from competition with a known ligand. For orientation: IC50 means the concentration at which inhibition is half-maximal.

BuChE from equine serum (eqBuChE), sequence (P81908 whole entry): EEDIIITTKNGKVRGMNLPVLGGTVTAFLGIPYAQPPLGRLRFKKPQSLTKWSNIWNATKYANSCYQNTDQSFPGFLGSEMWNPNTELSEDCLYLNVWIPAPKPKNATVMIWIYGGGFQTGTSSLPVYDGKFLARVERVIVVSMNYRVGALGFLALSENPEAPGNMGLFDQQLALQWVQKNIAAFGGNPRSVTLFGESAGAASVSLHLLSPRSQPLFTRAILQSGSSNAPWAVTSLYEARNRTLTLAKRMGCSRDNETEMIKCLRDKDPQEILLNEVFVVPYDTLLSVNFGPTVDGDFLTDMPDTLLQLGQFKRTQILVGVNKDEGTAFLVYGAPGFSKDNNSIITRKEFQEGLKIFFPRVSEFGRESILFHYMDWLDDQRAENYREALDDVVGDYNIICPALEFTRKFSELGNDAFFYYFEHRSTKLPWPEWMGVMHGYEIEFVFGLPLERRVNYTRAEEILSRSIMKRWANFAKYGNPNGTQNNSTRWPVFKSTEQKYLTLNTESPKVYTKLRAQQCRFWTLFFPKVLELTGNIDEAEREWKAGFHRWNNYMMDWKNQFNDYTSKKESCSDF
T3 sequence (O42275 24-633): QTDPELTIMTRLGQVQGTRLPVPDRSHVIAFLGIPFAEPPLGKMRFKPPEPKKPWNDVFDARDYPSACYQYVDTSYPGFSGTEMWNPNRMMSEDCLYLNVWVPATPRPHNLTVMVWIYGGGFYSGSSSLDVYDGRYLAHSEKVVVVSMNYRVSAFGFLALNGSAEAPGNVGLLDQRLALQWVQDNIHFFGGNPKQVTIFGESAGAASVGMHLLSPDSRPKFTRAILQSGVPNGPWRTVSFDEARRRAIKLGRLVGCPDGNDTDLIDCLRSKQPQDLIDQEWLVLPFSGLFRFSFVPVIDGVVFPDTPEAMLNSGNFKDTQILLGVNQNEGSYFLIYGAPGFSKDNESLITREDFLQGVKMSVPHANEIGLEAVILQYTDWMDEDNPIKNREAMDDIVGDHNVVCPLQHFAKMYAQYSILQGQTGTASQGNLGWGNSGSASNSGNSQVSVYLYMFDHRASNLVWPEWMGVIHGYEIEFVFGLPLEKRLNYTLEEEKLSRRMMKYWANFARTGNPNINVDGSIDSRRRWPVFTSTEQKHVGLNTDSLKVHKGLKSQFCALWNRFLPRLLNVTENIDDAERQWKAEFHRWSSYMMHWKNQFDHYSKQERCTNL
T2 sequence (Q9Y5N1 whole entry): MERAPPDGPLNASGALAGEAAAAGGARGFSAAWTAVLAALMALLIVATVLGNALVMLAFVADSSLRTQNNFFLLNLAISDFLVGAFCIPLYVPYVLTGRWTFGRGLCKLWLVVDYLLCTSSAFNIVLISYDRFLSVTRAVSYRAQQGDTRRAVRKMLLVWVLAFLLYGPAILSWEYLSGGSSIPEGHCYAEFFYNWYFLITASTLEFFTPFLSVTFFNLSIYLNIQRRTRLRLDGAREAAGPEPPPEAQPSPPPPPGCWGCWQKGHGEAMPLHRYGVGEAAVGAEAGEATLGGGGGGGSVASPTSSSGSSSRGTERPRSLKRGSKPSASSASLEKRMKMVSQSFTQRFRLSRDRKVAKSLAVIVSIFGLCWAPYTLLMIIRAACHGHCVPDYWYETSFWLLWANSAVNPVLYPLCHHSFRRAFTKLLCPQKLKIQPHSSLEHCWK

Take `O=C(O)C(=O)O.O=C(c1ccccc1)c1ccccc1OCCCCCN1CCCCC1` [Compound 2, Phenyl (2-((5-(piperidin-1-yl)pentyl)oxy)phenyl)methanone hydrogen oxalate]: the inhibition at 1 µM in assay [1] worked out at 23%. This compound also yielded a Ki in assay [2] of 0.371 µM. Moreover, in assay [3], the “selectivity eqBuChE versus eeAChE” value is “selective eqBuChE inhibitors” and the IC50 is 1.61 ± 0.06 µM. Further, in assay [4], the inhibition at 10 µM was determined as 22%.
Regarding `O=C(c1ccccc1)c1cccc(OCCCCCN2CCCCC2)c1` [Compound 3, Phenyl (3-((5-(piperidin-1-yl)pentyl)oxy)phenyl)methanone hydrogen oxalate], the inhibition at 1 µM in assay [1] came out at 15%. Further, the Ki in assay [2] was 0.21 µM. The IC50 in assay [3] is 4.01 ± 0.067 µM; in assay [4] it was 7.75 ± 0.329 µM.
As for `O=C(c1ccccc1)c1ccc(OCCCCCN2CCCCC2)cc1` [Compound 4, Phenyl (4-((5-(piperidin-1-yl)pentyl)oxy)phenyl)methanone hydrogen oxalate], in assay [1], the inhibition at 1 µM stood at 44%. This compound gave an IC50 in assay [3] of 2.48 ± 0.04 µM. Besides, in assay [4], the inhibition at 10 µM was found to be 41%.
`O=C(c1ccc(Cl)cc1)c1ccc(OCCCCCN2CCCCC2)cc1` [Compound 5, (4-Chlorophenyl) (4-((5-(piperidin-1-yl)pentyl)oxy)phenyl)methanone hydrogen oxalate]: in assay [1], the inhibition at 1 µM stood at 18%. The compound further registered a Ki in assay [2] of 0.02 µM. The IC50 in assay [3] was 1.68 ± 0.017 µM; in assay [4], 2.87 ± 0.071 µM.
Consider `O=C(O)C(=O)O.O=C(c1ccccc1)c1ccccc1OCCCCCCN1CCCCC1` [Compound 7, (2-((6-(Piperidin-1-yl)hexyl)oxy)phenyl)(phenyl)methanone hydrogen oxalate], for which the inhibition at 1 µM in assay [1] was 12%. In assay [2], this compound displayed a Ki of 0.161 µM. In addition, in assay [3], the “selectivity eqBuChE versus eeAChE” value was “selective eqBuChE inhibitors” and half-maximal inhibition (IC50) was put at 2.11 ± 0.032 µM. Further, the inhibition at 10 µM in assay [4] was 3%.
As for `O=C(c1ccc(Cl)cc1)c1ccc(OCCCCCCN2CCCCC2)cc1` [Compound 10, (4-Chlorophenyl) (4-((6-(piperidin-1-yl)hexyl)oxy)phenyl)methanone hydrogen oxalate], in assay [1], the inhibition at 1 µM came out at 39%. The same compound showed a Ki in assay [2] of 0.025 µM. Besides, the IC50 in assay [3] was found to be 2.46 ± 0.061 µM; in assay [4] it was 2.67 ± 0.094 µM.
The matching figures for `O=C(c1ccc(F)cc1)c1ccc(OCCCCCCN2CCCCC2)cc1` [Compound 11, (4-Fluorophenyl) (4-((6-(piperidin-1-yl)hexyl)oxy)phenyl)methanone hydrogen oxalate]: 28%, 0.026 µM, 0.419 ± 0.002 µM and 3.098 ± 0.009 µM.
Turning to `CC1CCCN(CCCCCOc2ccccc2C(=O)c2ccccc2)C1.O=C(O)C(=O)O` (centres unmarked) [Compound 12, (2-((5-(3-Methylpiperidin-1-yl)pentyl)oxy)phenyl)(phenyl)methanone hydrogen oxalate], the inhibition at 1 µM in assay [1] stood at 9%. The compound also returned a Ki in assay [2] of 0.208 µM. Besides, in assay [3], the “selectivity eqBuChE versus eeAChE” value is “selective eqBuChE inhibitors” and the midpoint of inhibition, the IC50, lay at 1.61 ± 0.061 µM. Moreover, the inhibition at 10 µM in assay [4] came out at 16%.
`CC1CCCN(CCCCCOc2cccc(C(=O)c3ccccc3)c2)C1` (centres unmarked) [Compound 13, (3-((5-(3-Methylpiperidin-1-yl)pentyl)oxy)phenyl)(phenyl)methanone hydrogen oxalate]: the inhibition at 1 µM in assay [1] was determined as 8%. For the same compound, in assay [2], the Ki worked out at 0.078 µM. Besides, the IC50 was determined as 3.42 ± 0.078 µM in assay [3] and 3.79 ± 0.104 µM in assay [4].
On to `CC1CCCN(CCCCCOc2ccc(C(=O)c3ccc(Cl)cc3)cc2)C1` (centres unmarked) [Compound 15, (4-Chlorophenyl) (4-((5-(3-methylpiperin-1-yl)pentyl)oxy)phenyl)methanone hydrogen oxalate], for which, in assay [1], the inhibition at 1 µM amounted to 19%. Further, the Ki in assay [2] (setting [5]) was determined as 0.037 µM. Also, the values for the IC50 in assay [3] and in assay [4] were 2.56 ± 0.05 µM and 2.65 ± 0.087 µM, respectively.
Turning to `CC1CCCN(CCCCCOc2ccc(C(=O)c3ccc(F)cc3)cc2)C1` (centres unmarked) [Compound 16, (4-Fluorophenyl) (4-((5-(3-methylpiperidin-1-yl)pentyl)oxy)phenyl)methanone hydrogen oxalate], in assay [1], the inhibition at 1 µM came to 20%. Further, the Ki in assay [2] came to 0.012 µM. Further, the figures for the IC50 in assay [3] and in assay [4] were 0.311 ± 0.006 µM and 2.023 ± 0.006 µM, respectively.
As to `CC1CCCN(CCCCCCOc2ccccc2C(=O)c2ccccc2)C1.O=C(O)C(=O)O` (centres unmarked) [Compound 17, (2-((6-(3-Methylpiperidin-1-yl)hexyl)oxy)phenyl)(phenyl)methanone hydrogen oxalate], in assay [1], the inhibition at 1 µM stood at 8%. The Ki in assay [2] was determined as 0.152 µM. In addition, in assay [3], the “selectivity eqBuChE versus eeAChE” value was “selective eqBuChE inhibitors” and the midpoint of inhibition, the IC50, lay at 2.5 ± 0.028 µM. Besides, the inhibition at 10 µM in assay [4] came out at 20%.
Turning to `CC1CCCN(CCCCCCOc2ccc(C(=O)c3ccc(Cl)cc3)cc2)C1` (centres unmarked) [Compound 20, (4-Chlorophenyl) (4-((6-(3-methylpiperin-1-yl)hexyl)oxy)phenyl)methanone hydrogen oxalate], in assay [1], the inhibition at 1 µM amounted to 17%. Besides, in assay [2] (setting [5]), the Ki is 0.044 µM. Besides, the IC50 in assay [3] is 2.52 ± 0.031 µM; in assay [4], 2.74 ± 0.098 µM.
`CC1CCCN(CCCCCCOc2ccc(C(=O)c3ccc(F)cc3)cc2)C1` (centres unmarked) [Compound 21, (4-Fluorophenyl) (4-(6-(3-methylpiperin-1-yl)hexyloxy)phenyl)methanone hydrogen oxalate]: the inhibition at 1 µM in assay [1] turned out to be 23%. Besides, in assay [2] (setting [5]), the inhibitory constant (Ki) was found to be 0.075 µM. The figures for the IC50 in assay [3] and in assay [4] were 2.56 ± 0.04 µM and 2 ± 0.046 µM, respectively.
For the compound `CC1CCN(CCCCCOc2cccc(C(=O)c3ccccc3)c2)CC1` [Compound 22, (3-((5-(4-Methylpiperidin-1-yl)pentyl)oxy)phenyl)(phenyl)methanone hydrogen oxalate], the inhibition at 1 µM in assay [1] is 32%. Further, affinity in assay [2] was put at a Ki of 0.298 µM. Also, the figures for the IC50 in assay [3] and in assay [4] were 1.7 ± 0.046 µM and 4.45 ± 0.094 µM, respectively.
The corresponding values for `CC1CCN(CCCCCOc2ccc(C(=O)c3ccccc3)cc2)CC1` [Compound 23, (4-((5-(4-Methylpiperidin-1-yl)pentyl)oxy)phenyl)(phenyl)methanone hydrogen oxalate] are 27%, 0.067 µM, 1.57 ± 0.035 µM and 2.6 ± 0.072 µM.
The corresponding values for `CC1CCN(CCCCCCOc2cccc(C(=O)c3ccccc3)c2)CC1` [Compound 24, (3-((6-(4-Methylpiperidin-1-yl)hexyl)oxy)phenyl)(phenyl)methanone hydrogen oxalate] are 20%, 0.106 µM, 1.06 ± 0.043 µM and 2.46 ± 0.07 µM.
Consider `CC1CCN(CCCCCCOc2ccc(C(=O)c3ccccc3)cc2)CC1` [Compound 25, (4-((6-(4-Methylpiperidin-1-yl)hexyl)oxy)phenyl)(phenyl)methanone hydrogen oxalate], for which the inhibition at 1 µM in assay [1] came out at 22%. In addition, affinity in assay [2] was put at a Ki of 0.053 µM. The IC50 worked out at 1.56 ± 0.05 µM in assay [3] and 2.69 ± 0.047 µM in assay [4].
With `O=C(O)C(=O)O.O=C(c1ccccc1)c1ccccc1OCCCCCN1CCCCCC1` [Compound 26, (2-((5-(Azepan-1-yl)pentyl)oxy)phenyl)(phenyl)methanone hydrogen oxalate], the inhibition at 1 µM in assay [1] was determined as 3%. In addition, in assay [2], affinity was put at a Ki of 0.302 µM. Also, in assay [3], the “selectivity eqBuChE versus eeAChE” value is listed as “selective eqBuChE inhibitors” and the IC50 amounted to 0.384 ± 0.008 µM. The inhibition at 10 µM in assay [4] was 24%.
Turning to `O=C(c1ccccc1)c1cccc(OCCCCCN2CCCCCC2)c1` [Compound 27, (3-((5-(Azepan-1-yl)pentyl)oxy)phenyl)(phenyl)methanone hydrogen oxalate], the inhibition at 1 µM in assay [1] is 14%. In addition, in assay [2], the Ki worked out at 0.307 µM. Moreover, the results for the IC50 in assay [3] and in assay [4] were 0.901 ± 0.01 µM and 3.66 ± 0.092 µM, respectively.
As for `O=C(c1ccc(Cl)cc1)c1ccc(OCCCCCN2CCCCCC2)cc1` [Compound 29, (4-Chlorophenyl)(4-(5-(azepan-1-yl)pentyloxy)phenyl)methanone hydrogen oxalate], in assay [1], the inhibition at 1 µM amounted to 26%. In assay [2], the affinity, expressed as Ki, was 0.066 µM. For the same compound, the IC50 in assay [3] came to 0.676 ± 0.003 µM; in assay [4], 2.24 ± 0.035 µM.
Take `Clc1ccc(CCCOCCCN2CCCCC2)cc1` [pitolisant, reference compound]: the inhibition at 10 µM in assay [4] was determined as 3%.
